Laboratory results: patent publication US20140106967A1, “AUXIN PLANT GROWTH REGULATORS” (The Governors of The University of Alberta, priority 2011, published 2014)

What was measured:
[1] = system: Pisum sativum L. cv. Carneval; assay: Field study, seed yield of pea 'Carneval' (Table P1); format: in vivo; conditions: for Seed yield per 1 meter row: sprayed at about 5% first flower
Description: In a field study, pea (Pisum sativum L. cv. Carneval) seed with a germination rate assessed at greater than 95% was planted on May 11, 2011 into black-loam soil that had been clean-cultivated for two previous growing seasons located at the Edmonton Research Station (ER31) of the University of Alberta, Edmonton, Alberta, Canada. The treatment plots measured 2 m wide by 3 m long, comprising rows 50 cm apart. The seeds were precision-drilled by hand at 5 cm intervals in each row. At the time of seeding, fresh TagTeam® granular rhizobial inoculant was drilled with the seed at the rate of 1.11 g per 6 m^2. No herbicides or pesticides were used during this study and plots were manually weeded to maintain weed-free plots. Seed emergence began on May 26, 2011 (15 days post-planting) due to cool temperature conditions after planting. Precipitation during the growing season was within the regional average. The treatments consisted of one application of aqueous 4-methyl-indole-3-acetic acid (4-ME-IAA) solutions at 1×10^−6M, 1×10^−5M, 5×10^−5M, or 1×10^−4M in 0.1% (v/v) Tween 80, or an aqueous control solution (0.1% [v/v] Tween 80) applied to the plants on Jul. 10, 2011, when about 5% of the plants were in first flower (1 treatment per plot; 5 treatments/plots total). A separate Chapin 20000-type 4 L pneumatic sprayer was used for applying each treatment solution; each sprayer was equipped with a medium-delivery blue fan nozzle designed to deliver 1.4 L per minute at the normal operating pressure of 40 PSI. Each plot was sprayed with a total of 0.7 L of solution to obtain uniform coverage. At the time of spraying, the mean day temperature was 15.9° C., the mean wind speed was 7 km/h, the relative humidity was 86%, and the sky was overcast. Harvesting (by hand) took place Aug. 27 to 30, 2011 after the plants had desiccated naturally. The pods were further dried for six days in a forced-air drier at 30° C. prior to obtaining seed weights. Each plot was harvested in eight groups of 20 contiguous plants arranged so that each group (1 m section of row) had at least two plants immediately next to it at each end. The treatment replication unit was 20 contiguous plants as diagramed in Figure P1. As the between-row spacing was 50 cm, the yield from each group represented that from 0.5 m^2

[2] = system: wheat 'Harvest HRS'; assay: Wheat field experiment (Table W1); format: in vivo, Triticum aestivum; conditions: 1×10^−5 M
Description: The wheat (Triticum aestivum) cultivar Harvest HRS was seeded on May 20, 2011 with a target of 250 seedlings per m^2 into a field plot located at the St. Albert Field-Research Station of the University of Alberta, St. Albert, Alberta, Canada that was seeded with canola the previous season. Eight 2×4 m plots were cut out of a larger field plot with a mower producing two rows of four 2×4 m plots with a 1 m buffer between each plot and 4 m between the 4-plot rows. The hormone treatments were randomly assigned to the 2×4 plots. Aqueous solutions of 4-ME-IAA at 1×10^−5 M in 0.1% (v/v) Tween 80 or control solutions (0.1% [v/v]Tween 80) were sprayed Jul. 15, 2011 in slightly breezy (8 km/h), overcast weather, temperature 16° C. Three hours later, the sun emerged and the ambient temperature rose from 16° C. to 21° C. The relative humidity at the time of spraying was 75%. On average, 15% of the plants in the plots had their first florets open at the time of hormone application. A separate Chapin 20000-type 4 L pneumatic sprayer was used for applying the 4-ME-IAA and the control solutions; each sprayer was equipped with a medium-delivery blue fan nozzle designed to deliver 1.4 L per minute at the normal operating pressure of 40 PSI. Each plot was sprayed with a total of 0.91 L of solution to obtain uniform coverage.

[3] = system: PsGA20ox1, PsGA3ox1, PsGA2ox1; assay: GA biosynthesis/catabolism gene expression in pea pericarp; format: in vivo, Pisum sativum; conditions: 24 h treatment period
Description: During early pea fruit growth, the physiological roles of 4-chloroindole-3-acetic acid (4-Cl-IAA) and IAA, both natural pea auxins, in regulating gibberellin (GA) 20-oxidase gene expression (PsGA20ox1) were tested with 4-position, ring-substituted auxins that have a range of biological activities (fruit growth). The effect of seeds, and natural and synthetic auxins (4-Cl-IAA, and IAA; 4-Me-IAA, 4-Et-IAA and 4-F-IAA, respectively), and auxin concentration (4-Cl-IAA) on PsGA20ox1 mRNA levels in pea pericarp were investigated over a 24 h treatment period. The ability of certain 4-substituted auxins to increase PsGA20ox1 mRNA levels in deseeded pericarp was correlated with their ability to stimulate pericarp growth.

[4] = At maturity, 20 spikes per plot

Cc1cccc2[nH]cc(CC(=O)O)c12 [4-ME-IAA, 4-methyl-indole-3-acetic acid]
increase in seed yield vs control ([1]; 1×10^−4 M): 28%
Seed yield per 1 meter row ([1]; 1×10^−4 M): 123.20 ± 9.19 g
Seed yield per 1 meter row ([1]; 1×10^−5 M): 105.63 ± 10.72 g
increase in seed yield vs control ([1]; 1×10^−6 M): 43%
Seed yield per 1 meter row ([1]; 1×10^−6 M): 137.84 ± 10.16 g
Seed yield per 1 meter row ([1]; 5×10^−5 M): 78.85 ± 12.06 g
increase in seed number per floral spike [2]: 10%
increase in seed weight per floral spike [2]: 12%
Seed number per spike ([2]; At maturity): 27.5 ± 1.3
Seed weight per spike ([2]; At maturity): 1.03 ± 0.05 g
Total seed number [2, 4]: 550.8 ± 26.6
Total seed weight [2, 4]: 20.6 ± 1.1 g
Number of spikes per plant ([2]; Pre-harvest): 3.825 ± 0.207
Plant height ([2]; Pre-harvest): 94.5 ± 0.4 cm
PsGA20ox1 mRNA levels in deseeded pericarp [3]: second most active auxin
